Experimental data published in ChEMBL document CHEMBL5442379, “ASAP - SARS-CoV-2 nsp3 macrodomain single point” (2024).

Target: Replicase polyprotein 1ab (Severe acute respiratory syndrome coronavirus 2) (UniProt P0DTD1)
Description: Functional biochemical assay to identify treatments for viral infectious disease that targets SARS-COV-2 nsp3 macrodomain, whereby the mechanism of action displaces an ADP-Ribose modified peptide from the binding site. Utilizing a time-resolved fluorescence method to measure binding by reading the emitted fluorescence intensity in two wavelengths.

Cn1ncnc1C(=O)N1CCC(c2ccn3ncc(C(=O)N4CCCCC4)c3c2)CC1 gave an inhibition (Concentration 49.75 uM, Number of replicates 2.0, Standard deviation 0.221 %) of 2.38% and an inhibition (Concentration 99.5 uM, Number of replicates 2.0, Standard deviation 2.086 %) of 20.4%.

With COc1cc(Nc2ncnc3[nH]ccc23)ccc1NC(C)=O the inhibition (Concentration 50.0 uM, Number of replicates 2.0, Standard deviation 12.002 %) was -7.76%.

With Cc1nc(NC(=O)Cn2cnc3ccccc3c2=O)c2cc[nH]c2n1 the inhibition (Concentration 49.75 uM, Number of replicates 2.0, Standard deviation 4.18 %) was -4.07% and the inhibition (Concentration 99.5 uM, Number of replicates 2.0, Standard deviation 1.131 %) was -4.89%.

O=C(Nc1ccc(O)cc1)Nc1ccc(Oc2ccccc2)cc1 gave an inhibition (Concentration 50.0 uM, Number of replicates 2.0, Standard deviation 2.274 %) of -3.31%.

O=C(CCN(Cc1cccc(Cl)c1)C(=O)c1ncccc1Cl)N1CCNCC1 showed an inhibition (Concentration 49.75 uM, Number of replicates 2.0, Standard deviation 1.117 %) of 2.75% and an inhibition (Concentration 99.5 uM, Number of replicates 2.0, Standard deviation 8.572 %) of 7.52%.

Compound C[C@H](NC(=O)c1cnn2ccc(C3CCN(C(=O)c4ccccc4)CC3)cc12)c1cccnc1 has an inhibition (Concentration 49.75 uM, Number of replicates 2.0, Standard deviation 2.207 %) of -1.84% and an inhibition (Concentration 99.5 uM, Number of replicates 2.0, Standard deviation 1.542 %) of -6.21%.

CCC(CC)(C(=O)Nc1nc(C)nc2[nH]ccc12)C(=O)OC(C)(C)C gave an inhibition (Concentration 50.0 uM, Number of replicates 2.0, Standard deviation 5.081 %) of -9.46% and an inhibition (Concentration 100.0 uM, Number of replicates 2.0, Standard deviation 0.41 %) of -4.71%.

In the case of Cc1nc2cnccn2c1NC(=O)c1cc(-c2ccco2)[nH]n1, the inhibition (Concentration 50.0 uM, Number of replicates 2.0, Standard deviation 2.08 %) was -3.88%.

CN1CCC[C@H](NC(=O)c2cnn3ccc(C4CCN(C(=O)c5ccccc5)CC4)cc23)C1 was tested, and the inhibition (Concentration 49.75 uM, Number of replicates 2.0, Standard deviation 0.821 %) was -6.99% and the inhibition (Concentration 99.5 uM, Number of replicates 2.0, Standard deviation 3.447 %) was -5.44%.

CC1OCCC1(O)CNC(=O)c1ncnc2[nH]ccc12 (stereo not drawn) gave an inhibition (Concentration 50.0 uM, Number of replicates 2.0, Standard deviation 4.016 %) of 1.86%.

In the case of COCc1nc(CNc2ncc3c(n2)COC3)cs1, the inhibition (Concentration 50.0 uM, Number of replicates 2.0, Standard deviation 8.324 %) was -7.14%.

O=C(Cc1n[nH]c2c1CCCC2)Nc1cnc2[nH]ncc2c1 gave an inhibition (Concentration 50.0 uM, Number of replicates 2.0, Standard deviation 2.447 %) of -1.26%.

FC(F)(F)Oc1ccccc1-c1ncnc2[nH]ccc12 was tested, and the inhibition (Concentration 50.0 uM, Number of replicates 2.0, Standard deviation 5.274 %) was -3.37% and the inhibition (Concentration 100.0 uM, Number of replicates 2.0, Standard deviation 3.913 %) was 2.12%.

For O=C(c1cccc(Br)c1)N1CCC(c2ccn3ncc(C(=O)N4CCCCC4)c3c2)CC1, the inhibition (Concentration 50.0 uM, Number of replicates 2.0, Standard deviation 0.499 %) was 32.1%.

In the case of C[C@]1(C(=O)O)CCCN1C(=O)c1ncnc2[nH]ccc12, the inhibition (Concentration 50.0 uM, Number of replicates 2.0, Standard deviation 5.501 %) was -5.29% and the inhibition (Concentration 100.0 uM, Number of replicates 2.0, Standard deviation 0.477 %) was 5.67%.

With Cc1nccc(C(=O)N2CCC(c3ccn4ncc(C(=O)N5CCCCC5)c4c3)CC2)n1 the inhibition (Concentration 49.75 uM, Number of replicates 2.0, Standard deviation 2.531 %) was 16.5% and the inhibition (Concentration 99.5 uM, Number of replicates 2.0, Standard deviation 1.199 %) was 27.4%.

For COc1cc(CC(=O)Nc2cc3c(=O)nc[nH]c3cn2)on1, the inhibition (Concentration 49.75 uM, Number of replicates 2.0, Standard deviation 0.449 %) was -4.69% and the inhibition (Concentration 99.5 uM, Number of replicates 2.0, Standard deviation 2.956 %) was -3.48%.

O=C(c1cnc[nH]1)N1CCC(c2ccn3ncc(C(=O)N4CCCCC4)c3c2)CC1 was tested, and the inhibition (Concentration 49.75 uM, Number of replicates 2.0, Standard deviation 1.741 %) was 20.3% and the inhibition (Concentration 99.5 uM, Number of replicates 2.0, Standard deviation 2.598 %) was 35.3%.

Oc1cc(CNc2ncnc3[nH]cnc23)ccn1 showed an inhibition (Concentration 50.0 uM, Number of replicates 2.0, Standard deviation 4.588 %) of -0.821% and an inhibition (Concentration 100.0 uM, Number of replicates 2.0, Standard deviation 5.781 %) of -3.73%.

Work on COc1cc(CNc2cnc3[nH]ncc3c2)ccc1Cl yielded an inhibition (Concentration 50.0 uM, Number of replicates 2.0, Standard deviation 4.023 %) of -2.79%.

With O=C(NCc1c[nH]nn1)c1cnn2ccc(C3CCN(C(=O)c4ccccc4)CC3)cc12 the inhibition (Concentration 49.75 uM, Number of replicates 2.0, Standard deviation 0.251 %) was -2.86% and the inhibition (Concentration 99.5 uM, Number of replicates 2.0, Standard deviation 8.51 %) was 2.17%.

Work on CC(C)n1ncnc1CNc1cc2c(=O)nc[nH]c2cn1 yielded an inhibition (Concentration 50.0 uM, Number of replicates 2.0, Standard deviation 0.347 %) of -1.49%.

For Cc1[nH]cnc1C(=O)N1CCC(c2ccn3ncc(C(=O)N4CCCCC4)c3c2)CC1, the inhibition (Concentration 49.75 uM, Number of replicates 2.0, Standard deviation 1.318 %) was 16.4% and the inhibition (Concentration 99.5 uM, Number of replicates 2.0, Standard deviation 4.675 %) was 32%.

Compound Cc1ncc(NCc2csc(-c3ccccn3)n2)cn1 has an inhibition (Concentration 49.75 uM, Number of replicates 2.0, Standard deviation 3.788 %) of -5.23% and an inhibition (Concentration 99.5 uM, Number of replicates 2.0, Standard deviation 2.632 %) of -4.49%.

In the case of C[C@@H]1CN(C(=O)c2ccc(NC(=O)Nc3ccccc3)cc2)CC(=O)N1, the inhibition (Concentration 49.75 uM, Number of replicates 2.0, Standard deviation 1.912 %) was -0.707% and the inhibition (Concentration 99.5 uM, Number of replicates 2.0, Standard deviation 5.834 %) was 0.29%.

In the case of Cc1cocc1C(=O)N(CCC(=O)N1CCNCC1)Cc1cccc(Cl)c1, the inhibition (Concentration 49.75 uM, Number of replicates 2.0, Standard deviation 0.438 %) was 1.4% and the inhibition (Concentration 99.5 uM, Number of replicates 2.0, Standard deviation 0.13 %) was 0.51%.

With C[C@@H](Cc1ccc(Cl)s1)Nc1ccc([C@@H](CC(=O)O)NC(=O)c2c[nH]c3ncncc23)cc1 the inhibition (Concentration 49.75 uM, Number of replicates 2.0, Standard deviation 2.68 %) was -1.54% and the inhibition (Concentration 99.5 uM, Number of replicates 2.0, Standard deviation 2.267 %) was 1.95%.

For O=C(Nc1ccccc1)Nc1ccc(C(=O)Nc2ncccc2F)cc1, the inhibition (Concentration 49.75 uM, Number of replicates 2.0, Standard deviation 1.252 %) was 4.59% and the inhibition (Concentration 99.5 uM, Number of replicates 2.0, Standard deviation 5.725 %) was 10.2%.

With Cc1cc(NCc2cnc3c(c2)NC(=O)CO3)cnc1C the inhibition (Concentration 50.0 uM, Number of replicates 2.0, Standard deviation 8.489 %) was 4.53%.

Cc1ccc2ccccc2c1-c1ncnc2[nH]ccc12 gave an inhibition (Concentration 49.75 uM, Number of replicates 2.0, Standard deviation 3.409 %) of -5.32% and an inhibition (Concentration 99.5 uM, Number of replicates 2.0, Standard deviation 3.055 %) of -9.1%.

For O=C(Nc1ccccc1)Nc1ccc(C(=O)NCc2ccnc(F)c2)cc1, the inhibition (Concentration 49.75 uM, Number of replicates 2.0, Standard deviation 0.77 %) was -0.36% and the inhibition (Concentration 99.5 uM, Number of replicates 2.0, Standard deviation 1.377 %) was 4.92%.

O=C(Nc1ccccc1)Nc1ccc(C(=O)N2CCOCC23CCC3)cc1 gave an inhibition (Concentration 49.75 uM, Number of replicates 2.0, Standard deviation 0.885 %) of -5.18% and an inhibition (Concentration 99.5 uM, Number of replicates 2.0, Standard deviation 3.072 %) of -3.18%.

For Cn1cc([C@@H](Nc2ncnc3[nH]ccc23)c2ccccc2)cn1, the inhibition (Concentration 49.75 uM, Number of replicates 2.0, Standard deviation 1.638 %) was 20% and the inhibition (Concentration 99.5 uM, Number of replicates 2.0, Standard deviation 1.226 %) was 39.3%.

c1nc(N[C@@H]2CCCc3c2cnn3C2CCCC2)c2cc[nH]c2n1 was tested, and the inhibition (Concentration 49.75 uM, Number of replicates 2.0, Standard deviation 0.354 %) was 0.884% and the inhibition (Concentration 99.5 uM, Number of replicates 2.0, Standard deviation 0.15 %) was 14.3%.

Cc1cccc(Cl)c1-n1sc(=O)n(CC2CC2)c1=O gave an inhibition (Concentration 50.0 uM, Number of replicates 2.0, Standard deviation 1.233 %) of 51.9%.

Cn1cc(Br)c(CNC(=O)c2ccc(NC(=O)Nc3ccccc3)cc2)n1 gave an inhibition (Concentration 49.75 uM, Number of replicates 2.0, Standard deviation 4.908 %) of 4.31% and an inhibition (Concentration 99.5 uM, Number of replicates 2.0, Standard deviation 1.253 %) of 1.2%.

Cn1nc(NCc2cc3c(=O)[nH]ccc3o2)c2nccnc21 showed an inhibition (Concentration 50.0 uM, Number of replicates 2.0, Standard deviation 1.985 %) of -1.01%.

CC1(C)CNCCN1C(=O)c1ccc(NC(=O)Nc2ccccc2)cc1 was tested, and the inhibition (Concentration 49.75 uM, Number of replicates 2.0, Standard deviation 5.654 %) was 2.24% and the inhibition (Concentration 99.5 uM, Number of replicates 2.0, Standard deviation 1.022 %) was 1.39%.

O=C(c1cc(O)ccn1)N1CCC(c2ccn3ncc(C(=O)N4CCCCC4)c3c2)CC1 showed an inhibition (Concentration 49.75 uM, Number of replicates 2.0, Standard deviation 1.167 %) of 17.6% and an inhibition (Concentration 99.5 uM, Number of replicates 2.0, Standard deviation 1.673 %) of 32.2%.

With c1ccc2sc(CCNc3ncnc4nc[nH]c34)nc2c1 the inhibition (Concentration 50.0 uM, Number of replicates 2.0, Standard deviation 2.493 %) was -4.21%.

With Cc1nn(-c2ccccc2)c(C)c1[C@H]1COCCN1c1ncnc2[nH]ccc12 the inhibition (Concentration 49.75 uM, Number of replicates 2.0, Standard deviation 1.442 %) was -0.042% and the inhibition (Concentration 99.5 uM, Number of replicates 2.0, Standard deviation 1.631 %) was -4.22%.

COc1ccc(Nc2ncnc3[nH]ncc23)c(OC)c1 was tested, and the inhibition (Concentration 50.0 uM, Number of replicates 2.0, Standard deviation 7.795 %) was 2.6%.

Cc1cccc(OCCNc2ncnc3nc[nH]c23)c1 gave an inhibition (Concentration 50.0 uM, Number of replicates 2.0, Standard deviation 4.697 %) of 3.91%.

Work on FC(F)(F)c1nc(NC[C@H]2CCCO2)c2nc[nH]c2n1 yielded an inhibition (Concentration 50.0 uM, Number of replicates 2.0, Standard deviation 2.867 %) of 2.5%.

Compound c1ccc(-c2cc(CNc3ncnc4[nH]ccc34)on2)cc1 has an inhibition (Concentration 50.0 uM, Number of replicates 2.0, Standard deviation 8.772 %) of 7.14% and an inhibition (Concentration 100.0 uM, Number of replicates 2.0, Standard deviation 1.845 %) of -3.46%.

O=S(=O)(NC[C@@H]1CCCCO1)c1cn2c(n1)CCCC2 was tested, and the inhibition (Concentration 50.0 uM, Number of replicates 2.0, Standard deviation 0.892 %) was -5.39%.

With CC(C)[C@@H](CO)[C@@H](Nc1ncnc2[nH]ccc12)C(C)C the inhibition (Concentration 49.75 uM, Number of replicates 2.0, Standard deviation 2.34 %) was 6.65% and the inhibition (Concentration 99.5 uM, Number of replicates 2.0, Standard deviation 2.712 %) was 13.1%.

In the case of O=C(NCc1nc(-c2ccco2)n[nH]1)c1cc(=O)n2ncnc2[nH]1, the inhibition (Concentration 50.0 uM, Number of replicates 2.0, Standard deviation 1.646 %) was -2.6%.

Cc1cc(C(F)(F)F)nn1CCNc1ncnc2[nH]ccc12 gave an inhibition (Concentration 50.0 uM, Number of replicates 2.0, Standard deviation 3.563 %) of -3.04%, an inhibition (Concentration 50.0 uM, Number of replicates 2.0, Standard deviation 6.31 %) of 4.6% and an inhibition (Concentration 100.0 uM, Number of replicates 2.0, Standard deviation 1.334 %) of -2.21%.

In the case of CO[C@@H](CNc1ncnc2[nH]ccc12)c1cccc(Cl)c1, the inhibition (Concentration 50.0 uM, Number of replicates 2.0, Standard deviation 2.381 %) was 4.1% and the inhibition (Concentration 100.0 uM, Number of replicates 2.0, Standard deviation 2.011 %) was 14.2%.
